# Literature values in patent publication US20220248734A1, “NUTRITIONAL HEALTH SUPPLEMENTS” (MAYO FOUNDATION FOR MEDICAL EDUCATION AND RESEARCH, priority 2019, published 2022).
# Conditions: NAC received within 24 hours of head injury from a blast
structure (smiles),measurement,value
"CC(=O)N[C@@H](CS)C(=O)O [NAC, N-acetyl cysteine]",side effects,no reported side effects
same,symptom resolution,significantly increases symptom resolution
